Results from US20240109880A1 (Insilico Medicine IP Limited, priority 2021, published 2024).

Key:
[1] = Permeability in Caco-2 Assay; format: in vitro ADME; conditions: human, pH 7.4, 2 hours; for Papp A→B at 2 h, 2 μM: Caco-2, 2.00 μM, pH 7.40; for efflux ratio at 2 h, 2 μM: Caco-2, 2.00 μM bi-directionally
Method: Permeability of test compounds was determined in Caco-2 Assay. Caco-2 cells purchased from ATCC were seeded onto […] (PET) in 96-well Corning Insert plates at 1×10^5 cells/cm2, and refreshed medium every 4-5 days until to the 21st to 28th day for confluent cell monolayer formation. The transport buffer in the study was HBSS with 10.0 mM HEPES at pH 7.40±0.05. Test compound was tested at 2.00 μM bi-directionally in duplicate. Digoxin was tested at 10.0 μM bi-directionally in duplicate, while nadolol and metoprolol were tested at 2.00 μM in A to B direction in duplicate. Final DMSO concentration was adjusted to less than 1%. The plate was incubated for 2 hours in CO2 incubator at 37±1° C., with 5% CO2 at saturated humidity without shaking. And all samples after mixed with acetonitrile containing internal standard were centrifuged at 3200×g for 10 min. For nadolol and metoprolol, 200 μL supernatant solution was diluted with 600 μL ultra-pure water for LC-MS/MS analysis. For digoxin and test compounds, 200 μL supernatant solution was diluted with 200 μL ultra-pure water for LC-MS/MS analysis. Concentrations of test and control compounds in starting solution, donor solution, and receiver solution were quantified by LC-MS/MS methodologies, using peak area ratio of analyte/internal standard. After transport assay, lucifer yellow rejection assay was applied to determine the Caco-2 cell monolayer integrity.

[2] = target: KAT6A (Homo sapiens (Human), UniProt Q92794); test: KAT6A Biochemical Assay (radiometric 384-well, [3H]-Ac-CoA, biotinylated H4(1-30) peptide); conditions: 5 nM KAT6A enzyme solution (2×), 60 min reaction at room temperature
KAT6A, sequence (Q92794 whole entry): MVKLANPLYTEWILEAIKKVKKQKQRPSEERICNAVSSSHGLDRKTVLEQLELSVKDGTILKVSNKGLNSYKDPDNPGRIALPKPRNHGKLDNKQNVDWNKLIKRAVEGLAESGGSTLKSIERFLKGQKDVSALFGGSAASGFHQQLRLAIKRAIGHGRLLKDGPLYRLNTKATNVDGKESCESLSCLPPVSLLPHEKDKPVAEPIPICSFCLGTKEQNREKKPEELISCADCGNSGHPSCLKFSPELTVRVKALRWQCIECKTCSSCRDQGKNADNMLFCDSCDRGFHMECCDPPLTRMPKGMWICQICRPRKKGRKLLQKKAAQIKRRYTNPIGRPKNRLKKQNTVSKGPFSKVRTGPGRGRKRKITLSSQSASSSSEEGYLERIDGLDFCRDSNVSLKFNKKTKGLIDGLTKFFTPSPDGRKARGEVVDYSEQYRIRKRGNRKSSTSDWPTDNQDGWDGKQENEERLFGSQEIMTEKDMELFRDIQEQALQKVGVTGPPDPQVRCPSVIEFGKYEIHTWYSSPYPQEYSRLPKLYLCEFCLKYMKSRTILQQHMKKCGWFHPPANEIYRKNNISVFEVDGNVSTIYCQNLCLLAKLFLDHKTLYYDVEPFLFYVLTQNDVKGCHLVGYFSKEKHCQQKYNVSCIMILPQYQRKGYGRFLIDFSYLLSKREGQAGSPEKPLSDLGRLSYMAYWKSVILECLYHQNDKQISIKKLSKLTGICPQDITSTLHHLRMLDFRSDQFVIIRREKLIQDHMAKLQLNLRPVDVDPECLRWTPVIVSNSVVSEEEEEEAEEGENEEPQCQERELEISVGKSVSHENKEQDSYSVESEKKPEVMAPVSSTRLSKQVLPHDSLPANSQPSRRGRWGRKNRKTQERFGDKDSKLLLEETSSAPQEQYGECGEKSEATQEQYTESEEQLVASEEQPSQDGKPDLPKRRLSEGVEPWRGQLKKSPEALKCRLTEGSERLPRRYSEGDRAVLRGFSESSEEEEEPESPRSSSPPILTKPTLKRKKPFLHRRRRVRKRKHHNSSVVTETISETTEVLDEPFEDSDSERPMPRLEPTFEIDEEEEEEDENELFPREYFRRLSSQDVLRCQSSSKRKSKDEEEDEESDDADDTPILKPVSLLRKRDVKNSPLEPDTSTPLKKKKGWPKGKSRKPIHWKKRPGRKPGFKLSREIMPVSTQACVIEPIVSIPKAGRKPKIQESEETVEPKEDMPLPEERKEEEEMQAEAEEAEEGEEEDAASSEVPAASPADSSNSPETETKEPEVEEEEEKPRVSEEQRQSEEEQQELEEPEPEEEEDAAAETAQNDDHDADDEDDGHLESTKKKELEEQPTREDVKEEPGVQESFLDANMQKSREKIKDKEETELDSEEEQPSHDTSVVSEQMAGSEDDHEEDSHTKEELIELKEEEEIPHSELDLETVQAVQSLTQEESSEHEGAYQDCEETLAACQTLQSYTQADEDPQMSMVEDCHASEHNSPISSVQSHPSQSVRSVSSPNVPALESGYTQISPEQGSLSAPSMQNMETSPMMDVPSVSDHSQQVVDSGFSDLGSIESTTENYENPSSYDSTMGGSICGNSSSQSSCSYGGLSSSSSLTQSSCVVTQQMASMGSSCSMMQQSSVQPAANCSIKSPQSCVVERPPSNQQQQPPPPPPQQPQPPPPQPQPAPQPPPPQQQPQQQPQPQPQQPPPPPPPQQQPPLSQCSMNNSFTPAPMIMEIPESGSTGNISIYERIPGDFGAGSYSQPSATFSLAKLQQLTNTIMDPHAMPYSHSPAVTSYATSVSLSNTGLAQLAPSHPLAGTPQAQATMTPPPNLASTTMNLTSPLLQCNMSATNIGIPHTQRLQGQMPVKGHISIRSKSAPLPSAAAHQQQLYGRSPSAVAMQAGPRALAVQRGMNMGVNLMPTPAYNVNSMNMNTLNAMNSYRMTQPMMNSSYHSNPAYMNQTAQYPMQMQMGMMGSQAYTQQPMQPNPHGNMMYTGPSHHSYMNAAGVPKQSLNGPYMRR
Method: Inhibition of KAT6A enzymatic activity by test compounds was determined using a radiometric 384-well format assay. A 10-point serial dilution of the test compounds were conducted in DMSO and then a volume of 200 nL was transferred into 384-well assay plate by Echo (Labcyte). 10 μL of 2× enzyme solution (5 nM KAT6A (Active Motif) in assay buffer (50 mM Tris-HCl pH 8.0, 50 mM KCl, 0.1 mM EDTA, 5% glycerol, 1 mM DTT)) was dispensed into assay plate except for low control wells, in which 10 μL of assay buffer was transferred. The plate was incubated at room temperature for 15 min before addition of 10 μL of 2×[^3H]-acetyl coenzyme A (Ac-CoA) and substrate peptide mix solution (500 nM (KAT6A) [^3H]-Ac-CoA (PerkinElmer) and 800 nM (KAT6A) biotinylated H4(1-30) peptide (GL Biochem) in assay buffer) to each well to start reaction. The plate was incubated at room temperature for 60 min (KAT6A), and then the reaction was stopped by adding 10 μL of stop solution (cold Ac-CoA (Cayman) in 1× assay buffer). 25 μL of reaction in each well was transferred to Flashplate (PerkinElmer) and incubated for another 1 hour at room temperature. The plate was read on Microbeta and the inhibition percentage of each compound treated well was calculated based on the equation in h %=(Max−sample)/(Max−Min)*100 where Max is signal from high control wells with enzyme, and Min is signal from low control wells with assay buffer only. The in h % data were further fit in XL-Fit to obtain IC50 values using a 4-parameter logistic (4PL) sigmoidal curve model.

Structure (SMILES) | Papp A→B at 2 h, 2 μM [1] [×10⁻⁶ cm/s] | IC50 [2] [nM] | efflux ratio at 2 h, 2 μM [1]
COc1ccnc(OC)c1S(=O)(=O)Nc1noc2cc(Oc3ccccn3)c3c(c12)OCCC3 [Compound 28, 2,4-dimethoxy-N-(5-(pyridin-2-yloxy)-3,4-dihydro-2H-chromeno[8,7-d]isoxazol-9-yl)pyridine-3-sulfonamide] | 2.38 | 10 to 100 | 9.58
COc1cccc(OC)c1S(=O)(=O)Nc1noc2cc(Oc3ccccn3)c3c(c12)OCC3 [Compound 23, 2,6-dimethoxy-N-(4-(pyridin-2-yloxy)-2,3-dihydrobenzofuro [7,6-d]isoxazol-8-yl)benzenesulfonamide] | 1.3 | < 10 | 14.2
COc1cccc(OC)c1S(=O)(=O)Nc1noc2cc(Cn3cccn3)c3c(c12)OCCCC3 [Compound 19] | 3.47 | < 10 | 13.2
COc1cc(C)nc(OC)c1S(=O)(=O)Nc1noc2cc(Oc3nccs3)cc(OCF)c12 [Compound 55, N-(4-(fluoromethoxy)-6-(thiazol-2-yloxy)benzo[d]isoxazol-3-yl)-2,4-dimethoxy-6-methylpyridine-3-sulfonamide] | 1.46 | 10 to 100 | 12.3
CCc1cc(OC)c(S(=O)(=O)Nc2noc3cc(Cn4cccn4)cc(OCF)c23)c(OC)n1 [Compound 52, N-(6-((1H-pyrazol-1-yl)methyl)-4-(fluoromethoxy)benzo[d]isoxazol-3-yl)-6-ethyl-2,4-dimethoxypyridine-3-sulfonamide] |  | 10 to 100 | 
COc1cccc(OC)c1S(=O)(=O)Nc1noc2cc(Oc3cccnn3)c3c(c12)OCCC3 [Compound 30, 2,6-dimethoxy-N-(5-(pyridazin-3-yloxy)-3,4-dihydro-2H-chromeno[8,7-d]isoxazol-9-yl)benzenesulfonamide] |  | 10 to 100 | 
COc1ccnc(OC)c1S(=O)(=O)Nc1noc2cc(Cn3cccn3)c3c(c12)OCCCC3 [Compound 20, N-(6-((1H-pyrazol-1-yl)methyl)-2,3,4,5-tetrahydrooxepino [3′,2′:5,6]benzo[1,2-d]isoxazol-10-yl)-2,4-dimethoxypyridine-3-sulfonamide] |  | < 10 | 
COc1cc(C2CC2)nc(OC)c1S(=O)(=O)Nc1noc2cc(Cn3cccn3)cc(OCF)c12 [Compound 49, N-(6-((1H-pyrazol-1-yl)methyl)-4-(fluoromethoxy)benzo [d]isoxazol-3-yl)-6-cyclopropyl-2,4-dimethoxypyridine-3-sulfonamide] |  | 10 to 100 | 
COc1cccc(OC)c1S(=O)(=O)Nc1noc2cc(Cn3cccn3)cc(OCF)c12 [Compound 31, N-(6-((1H-pyrazol-1-yl)methyl)-4-(fluoromethoxy)benzo [d]isoxazol-3-yl)-2,6-dimethoxybenzenesulfonamide] |  | < 10 | 
COc1cc(C)nc(OC)c1S(=O)(=O)Nc1noc2cc(Cn3cccn3)cc(OCF)c12 [Compound 37] |  | < 10 | 
COc1cccc(OC)c1S(=O)(=O)Nc1noc2cc(Cc3ccccn3)cc(OCF)c12 [Compound 45, N-(4-(fluoromethoxy)-6-(pyridin-2-ylmethyl)benzo[d]isoxazol-3-yl)-2,6-dimethoxybenzenesulfonamide] |  | 10 to 100 | 
COc1cc(C)nc(OC)c1S(=O)(=O)Nc1noc2cc(Cn3cccn3)c(F)c(OC(F)F)c12 [Compound 44, N-(6-((1H-pyrazol-1-yl)methyl)-4-(difluoromethoxy)-5-fluorobenzo[d]isoxazol-3-yl)-2,4-dimethoxy-6-methylpyridine-3-sulfonamide] |  | 10 to 100 | 
COc1cccc(OC)c1S(=O)(=O)Nc1noc2cc(Cn3cccn3)cc(OCC(F)(F)F)c12 [Compound 4, N-(6-((1H-pyrazol-1-yl)methyl)-4-(2,2,2-trifluoroethoxy)benzo[d]isoxazol-3-yl)-2,6-dimethoxybenzenesulfonamide] |  | 10 to 100 | 
COc1ccccc1S(=O)(=O)Nc1noc2cc(Cn3cccn3)c3c(c12)OCCC3 [Compound 15, N-(5-((1H-pyrazol-1-yl)methyl)-3,4-dihydro-2H-chromeno [8,7-d]isoxazol-9-yl)-2-methoxybenzenesulfonamide] |  | < 10 | 
COc1cc(C2CC2)nc(OC)c1S(=O)(=O)Nc1noc2cc(Cn3cccn3)cc(OC)c12 [Compound 39, N-(6-((1H-pyrazol-1-yl)methyl)-4-methoxybenzo[d]isoxazol-3-yl)-6-cyclopropyl-2,4-dimethoxypyridine-3-sulfonamide] |  | 10 to 100 | 
COc1cc(C)nc(OC)c1S(=O)(=O)Nc1noc2cc(Cn3cccn3)cc(OC)c12 [Compound 11, N-(6-((1H-pyrazol-1-yl)methyl)-4-methoxybenzo[d]isoxazol-3-yl)-2,4-dimethoxy-6-methylpyridine-3-sulfonamide] |  | < 10 | 

Now from value to compound:

Papp A→B at 2 h, 2 μM [1] [×10⁻⁶ cm/s] | IC50 [2] [nM] | efflux ratio at 2 h, 2 μM [1] | Structure (SMILES)
3.38 | < 10 |  | COc1cc(C)nc(OC)c1S(=O)(=O)Nc1noc2cc(Oc3nccs3)cc(OC)c12 [Compound 57, 2,4-dimethoxy-N-(4-methoxy-6-(thiazol-2-yloxy)benzo[d]isoxazol-3-yl)-6-methylpyridine-3-sulfonamide]
6.2 | < 10 | 4.53 | COc1cccc(OC)c1S(=O)(=O)Nc1noc2cc(Oc3nccs3)cc(OC)c12 [Compound 59, 2,6-dimethoxy-N-(4-methoxy-6-(thiazol-2-yloxy)benzo[d]isoxazol-3-yl)benzenesulfonamide]
0.628 |  |  | COc1cccc(OC)c1S(=O)(=O)Nc1noc2cc(Cn3cccn3)cc(OC)c12 [PF-9363, reference compound]
5.14 | < 10 | 6.17 | COc1cccc(OC)c1S(=O)(=O)Nc1noc2cc(Oc3nccs3)cc(OCF)c12 [Compound 58]
5.28 | < 10 | 2.84 | COc1ccccc1S(=O)(=O)Nc1noc2cc(Oc3nccs3)cc(OCF)c12 [Compound 56, N-(4-(fluoromethoxy)-6-(thiazol-2-yloxy)benzo[d]isoxazol-3-yl)-2-methoxybenzenesulfonamide]
9.38 | < 10 | 1.76 | COc1ccccc1S(=O)(=O)Nc1noc2cc(Oc3nccs3)c3c(c12)OCCC3 [Compound 61, 2-methoxy-N-(5-(thiazol-2-yloxy)-3,4-dihydro-2H-chromeno[8,7-d]isoxazol-9-yl)benzenesulfonamide]
10.6 | < 10 | 3.16 | COc1cccc(OC)c1S(=O)(=O)Nc1noc2cc(Oc3nccs3)c3c(c12)OCCCC3 [Compound 62, 2,6-dimethoxy-N-(6-(thiazol-2-yloxy)-2,3,4,5,9,10-hexahydrooxepino[3′,2′:5,6]benzo[1,2-d]isoxazol-10-yl)benzenesulfonamide]
10.9 | 10 to 100 | 1.4 | COc1ccccc1S(=O)(=O)Nc1noc2cc(Sc3nccs3)cc(OC)c12 [Compound 67, 2-methoxy-N-(4-methoxy-6-(thiazol-2-ylthio)benzo[d]isoxazol-3-yl)benzenesulfonamide]
13.7 | < 10 | 1.33 | COc1ccccc1S(=O)(=O)Nc1noc2cc(Oc3nccs3)cc(OC)c12 [Compound 60, 2-methoxy-N-(4-methoxy-6-(thiazol-2-yloxy)benzo[d]isoxazol-3-yl)benzenesulfonamide]
9 | < 10 | 2.82 | COc1cc(C)nc(OC)c1S(=O)(=O)Nc1noc2cc(Oc3nccs3)c3c(c12)OCCCC3 [Compound 64]
 | < 10 |  | COc1cccc(OC)c1S(=O)(=O)Nc1noc2cc(Cc3nccs3)cc(OCF)c12 [Compound 65, N-(4-(fluoromethoxy)-6-(thiazol-2-ylmethyl)benzo[d]isoxazol-3-yl)-2,6-dimethoxybenzenesulfonamide]
